The results in this text go back to ChEMBL document CHEMBL1201862, “PubChem BioAssay data set” (2004).

What all share (test): DTP human tumour cell line panel, 48 h
Assay [1] concerns OVCAR-3.
In assay [2] the test system is COLO 205.
Assay [3] has as its system NCI-H522.
The subject of assay [4] is XF498.
Assay [5] has as its system SR.
In assay [6] the test system is UACC-257.
Assay [7] deals with UO-31.
Assay [8] deals with ACHN.
Assay [9] deals with SK-MEL-5.
Assay [10] concerns LOX IMVI.
Assay [11] concerns MOLT-4.
The test system of assay [12] is MDA-MB-231.
Assay [13] deals with A498.
The test system of assay [14] is SF-268.
Assay [15] deals with SN12C.
For assay [16], the system named is RXF 393.
Assay [17] has as its system OVCAR-4.
Assay [18] concerns IGROV-1.
Assay [19] deals with Malme-3M.
The test system of assay [20] is M14.

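1) Cells in 96-well plates. 2) Compound, 48 h, 5 concentrations. 3) Linear interpolation between surrounding doses. 4) Unreached endpoint = highest concentration. The concentration for 50% growth inhibition is given as GI50.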 The source made the active and inactive calls. Rule as the data show it: active = GI50 up to about 1.1 µM and inactive = higher. Where only a bound is given, the exact number is not on record here.

One may read the GI50 as the concentration at which growth is held to half of that of the control. Take `CC(=O)NNc1nc(C)c(C(=O)NNC(=O)C(=O)Nc2nc3ccc([N+](=O)[O-])cc3s2)s1`: the GI50 in assay [1] was 15.3 µM (inactive); in assay [2], > 81.1 µM (inactive); in assay [3], 18.7 µM (inactive); in assay [4], 25 µM (inactive); in [5] it was 26.4 µM (inactive); in assay [6], 77.8 µM (inactive). In addition, the GI50 in [7] was 33.2 µM (inactive); in assay [8], 50.4 µM (inactive); in assay [9], 42.6 µM (inactive); in assay [10], 54.1 µM (inactive); in assay [11], 28.8 µM (inactive); in assay [12] it was 18.7 µM (inactive). In addition, the GI50 was 33.6 µM (inactive) in assay [13]; 49.1 µM (inactive) in assay [14]; 68.2 µM (inactive) in assay [15]; > 59.8 µM (inactive) in assay [16]; 46.7 µM (inactive) in assay [17]; 36.9 µM (inactive) in assay [18]. Further, the GI50 in assay [19] is 35 µM (inactive); in assay [20], > 67.8 µM (inactive).

For `C=C1C(=O)OC2CC(C)C3C=CC(=O)C3CC12` (stereo unspecified), the GI50 in assay [1] was 5.13 µM (inactive); in assay [2], 1.52 µM (inactive); in assay [3], 0.61 µM (active); in [4], 1.63 µM (inactive); in [5], 0.824 µM (active); in assay [6], 2.02 µM (inactive). The GI50 in assay [7] is 2.9 µM (inactive); in assay [8], 3.08 µM (inactive); in [9] it was 2.14 µM (inactive); in assay [10] it was 0.867 µM (active); in [11], 1.5 µM (inactive); in assay [12], 1.89 µM (inactive). Moreover, the GI50 in assay [13] was 11.5 µM (inactive); in [14], 2.55 µM (inactive); in assay [15], 2.02 µM (inactive); in [16], 1.53 µM (inactive); in [17], 2.95 µM (inactive); in [18], 3.62 µM (inactive). Besides, the GI50 in assay [19] was 2.05 µM (inactive); in assay [20], 1.62 µM (inactive).

For `Nc1ccc(C(=O)N/C(=C\c2cccc([N+](=O)[O-])c2)c2nc3c(O)nc(S)nc3[nH]2)cc1`, the GI50 is > 100 µM (inactive) in assay [1]; > 100 µM (inactive) in [2]; > 100 µM (inactive) in assay [3]; 16.9 µM (inactive) in [4]; > 100 µM (inactive) in [5]; > 100 µM (inactive) in assay [6]. Also, the GI50 was 30.3 µM (inactive) in assay [7]; > 76.2 µM (inactive) in [8]; > 100 µM (inactive) in [9]; > 92.7 µM (inactive) in assay [10]; > 56.2 µM (inactive) in assay [11]; > 53 µM (inactive) in assay [12]. Besides, the GI50 in assay [13] is 65.8 µM (inactive); in assay [14], 25.9 µM (inactive); in assay [15] it was > 88.7 µM (inactive); in [16], 27.4 µM (inactive); in assay [17] it was > 100 µM (inactive); in assay [18], 55.1 µM (inactive). Also, the GI50 in assay [19] and in assay [20] was > 100 µM (inactive) throughout.

`COc1ccc2nc(C(=O)c3ccccc3)c(C)cc2c1`: the GI50 in [1] is 10.3 µM (inactive); in assay [2] it was 5.93 µM (inactive); in assay [3], 1.88 µM (inactive); in assay [4] it was 3.68 µM (inactive); in [5], 2.81 µM (inactive); in [6] it was 4.14 µM (inactive). Besides, the GI50 in assay [7] is 12.9 µM (inactive); in assay [8], 10 µM (inactive); in assay [9] it was 3.15 µM (inactive); in assay [10], 5.43 µM (inactive); in assay [11], 5.02 µM (inactive); in assay [13], 2.74 µM (inactive). Moreover, the GI50 is 6.76 µM (inactive) in assay [14]; 6.84 µM (inactive) in assay [15]; 2.7 µM (inactive) in [16]; 97.1 µM (inactive) in assay [17]; > 29.2 µM (inactive) in assay [18]; 2.94 µM (inactive) in [19]. Also, in assay [20], the GI50 was 3.74 µM (inactive).

With `C(=C\c1cc(CCc2nc3ccccc3[nH]2)n[nH]1)/c1ccccc1`, the GI50 in [1], in [2], in assay [3], in assay [4], in [5] and in [6] was > 100 µM (inactive) each time. Besides, the GI50 in [7], in [8], in [9], in assay [10], in [11] and in [13] was > 100 µM (inactive) each time. Moreover, the GI50 in assay [14], in assay [15], in assay [16], in assay [17], in [18] and in [19] was > 100 µM (inactive) throughout. Besides, the GI50 in assay [20] was > 100 µM (inactive).

As for `COC1C=C(Nc2cccc(Cl)c2)C(=O)C1` (stereo unspecified), the GI50 in assay [1] was 65.3 µM (inactive); in assay [2] it was 10.4 µM (inactive); in assay [3], 24.9 µM (inactive); in assay [4], 26.9 µM (inactive); in assay [5], 58.3 µM (inactive); in assay [6] it was > 100 µM (inactive). Further, the GI50 in [7] was 41.2 µM (inactive); in [8] it was 60 µM (inactive); in assay [9], 83 µM (inactive); in [10], > 100 µM (inactive); in assay [11], 49.3 µM (inactive); in assay [13] it was 15.7 µM (inactive). For the same compound, the GI50 was 45.8 µM (inactive) in assay [14]; 64.9 µM (inactive) in [15]; 23.4 µM (inactive) in assay [16]; > 100 µM (inactive) in assay [17]; > 100 µM (inactive) in [18]; > 100 µM (inactive) in assay [19]. The GI50 in [20] is > 100 µM (inactive).

Turning to `COc1cc2c(cc1OC)C1[C@@H](c3ccccc3)OCN1CC2` (stereo partly specified), the GI50 was > 100 µM (inactive) in [1]; 91.2 µM (inactive) in assay [2]; > 100 µM (inactive) in assay [3]; > 100 µM (inactive) in assay [4]; > 88.7 µM (inactive) in [5]; > 100 µM (inactive) in assay [6]. For the same compound, the GI50 was > 100 µM (inactive) in [7]; > 100 µM (inactive) in assay [8]; > 96.4 µM (inactive) in assay [9]; > 96.2 µM (inactive) in assay [10]; > 100 µM (inactive) in assay [11]; > 100 µM (inactive) in assay [13]. The GI50 in assay [14], in assay [15], in assay [16], in assay [17], in assay [18] and in assay [19] was > 100 µM (inactive) throughout. The GI50 in assay [20] is > 100 µM (inactive).
